Data from patent US20130143933A1, “TARGETED CORRECTION OF A GENETIC DEFECT IN CANCER THERAPY” (TRT Pharma Inc., priority 2011, published 2013).

Experiments:
[1] = tested on: A2ARE-dependent reporter activity in A549 cells; assay: ARE-dependent luciferase assay (A2ARE-luc reporter) in A549 cells; type: cell-based; settings: NR16 at 1, 2.5 and 5 μM, NR13 at 2.5 μM, 24 hours, vs DMSO vehicle
Protocol: A549 cells are highly resistant to carboplatin and constitutively express high level of Nrf2 due to a mutation (G333C) in Keap1. Using ARE-dependent luciferase assays in A549 cells, which have constitutively high Nrf2 levels, the 18 compounds that are designed to target the CTD of Keap1 are tested. Included amongst these are NR16 and NR13. […] A2ARE-luc plasmid is transiently transfected into A549 cells. pRL-TK is included as internal control. Transfected cells are treated with DMSO vehicle, compound NR16 at 1, 2.5 and 5 μM as well as NR13 at 2.5 μM for 24 hours. **p<0.005, ***p<0.0005 when compared with DMSO vehicle.
A2ARE-luc and pRL-TK plasmids are transiently transfected into A549 cells. 6 hours after transfection, the transfected cells are exposed to DMSO vehicle control or compound at designated doses (5 μM) for 24 hours. ***p<0.0001 when compared with vehicle control.

Nrf2 [2] = assay: Immunoblotting of Nrf2 protein levels in A549 cells; type: cell-based; settings: 48 hours, NR16 at 1 and 5 μM, compared to DMSO
Protocol: This effect is mediated by a depletion of Nrf2, as confirmed by immunoblotting of Nrf2 protein levels in A549 cells, exposed to NR16 for 48 hours (FIG. 4).

[3] = tested on: phospho-GSK at Ser9 position; assay: phospho-GSK (Ser9) level in H460 cells exposed to PF-04691502; type: cell-based; settings: H460 cells (PI3K E545K, Keap1 D286H); within 6 hours
Protocol: (§1) H460 cells, which bear both mutations in PI3K (E545K) and Keap1 (D286H) are exposed the cells to the dual and potent PI3K and mTOR inhibitor PF-04691502 currently in clinical development. Within 6 hours a dramatic drop in phospho-GSK at the critical Ser9 position is detected (FIG. 6A). Within 24 hours cellular Nrf2 is reduced (FIG. 6A). This is not observed even at a higher dose in A549 cells, which have wild type PI3K (FIG. 6B).

Nrf2 [4] = assay: Cellular Nrf2 level in H460 cells exposed to PF-04691502; type: cell-based; settings: within 24 hours
Protocol: as §1

[5] = tested on: A549 cells (wild type PI3K); assay: phospho-GSK / Nrf2 level in A549 cells exposed to PF-04691502; type: cell-based; settings: even at a higher dose
Protocol: as §1

H460 cells = assay: Sensitization to paclitaxel, AlamarBlue cell survival, H460; type: cell-based; settings: PF at 10 and 50 nm, range of paclitaxel doses
Protocol: PF-04691502 is tested to determine is it sensitizes H460 cells to paclitaxel in vitro, using two concentrations of PF (10 and 50 nm) and a range of paclitaxel doses. Cell survival is measured using AlamarBlue and fluorescence detection for viable (metabolically active) cells with 560Exnm/590EMnm filters.

A549 = assay: Sensitization to paclitaxel, AlamarBlue cell survival, A549; type: cell-based; settings: A549, Keap1 mutation but wild type PI3K
MCF-7 cells = assay: Sensitization to paclitaxel, AlamarBlue cell survival, MCF-7; type: cell-based; settings: MCF-7, PI3K mutation but no Keap1 mutation
MCF7 cells = assay: Sensitization to cisplatin or paclitaxel in Keap1-depleted (siRNA) MCF7 cells, Alamar blue; type: cell-based; settings: MCF7 cells with Keap1 depletion (siRNA); PF-04691502 50nM for 24 h
From the text: To further test the specific cytotoxicity of PF-04691502, H460 cells are transfected with an siRNA specifically designed to deplete GSK-3R levels. Another siRNA that depletes Keap1 is used to test whether cells which have an activating mutation of PI3K, but WT Keap1, (e.g. MCF7), are sensitized by PF-04691502 when Keap1 is depleted. The pSuper platform (OligoEngine, Seattle, Wash.) is used to clone both siRNAs. Small inhibitory RNA sequences are designed using software available online at invitrogen.com. The siRNA, when dimerized form Bgl II and Hind III restriction sites. The oligos are cloned into the Bgl II/Hind III sites of the pSuper-puro vector.
These experiments confirm that the proposed mechanism of sensitization is GSK-dependent in Keap1 mutated or depleted (siRNA) cells. Cells are exposed to PF-04691502 50nM for 24 h, at which time media is replaced with fresh PF-04691502 and one of either cisplatin or paclitaxel is added at various doses. Cell survival is determined using Alamar blue. The shift in IC50 is determined.

pAkt (and pGSK-3β) = settings: mouse xenograft models; oral, once daily, 10 mg/Kg; cited from earlier work

SMILES	A2ARE-dependent reporter activity [1]	Nrf2 protein level (western blot) (Nrf2 [2])	phospho-GSK at Ser9 position [3]	cellular Nrf2 (Nrf2 [4])	drop in phospho-GSK / reduction of cellular Nrf2 [5]	sensitization to paclitaxel (cell survival) (H460 cells)	sensitization to paclitaxel (cell survival) (A549)	sensitization to paclitaxel (cell survival) (MCF-7 cells)	sensitization to cisplatin or paclitaxel (cell survival) (MCF7 cells)	depletion of phosphorylated forms of proteins in the PI3K pathway such as pAkt (and pGSK-3β) (pAkt (and pGSK-3β))	persistence of depletion of phosphorylated PI3K pathway proteins (pAkt (and pGSK-3β))
O=C(CCCSCCCC(=O)N/N=C/c1ccccc1O)N/N=C/c1ccccc1O [NR16]	suppressed A2ARE-dependent reporter activity	dose-dependent decrease	–	–	–	–	–	–	–	–	–
O=C(CCCSCCCC(=O)N/N=C/c1ccccc1)N/N=C/c1ccccc1 [NR13]	inactive	inactive	–	–	–	–	–	–	–	–	–
COc1ccc(-c2cc3c(C)nc(N)nc3n([C@H]3CC[C@H](OCCO)CC3)c2=O)cn1 [PF-04691502]	–	–	dramatic drop	reduced	not observed	significant sensitization	no sensitization	no sensitization	sensitizing effect	significant depletion	≥ 8 h
